From patent US12496320B2, “Lactobacillus sp. strain and use thereof” (LG HOUSEHOLD & HEALTH CARE LTD., priority 2020, dated 2025)

Columns and labels:
Format in all cases: cell-based
skin fibroblasts = assay: Collagen synthesis effect, ELISA; conditions: concentration 100 (unit not given), 24 hours
Experimental: The efficacy of collagen synthesis was investigated for the Lactobacillus pentosus […]-1 strain of the present invention. Specifically, after primary culture of skin fibroblasts, DMEM (Dulbecco's Modified Eagle's Medium) with an addition of 10% FBS was used as a basal medium for the skin fibroblasts. Then, the skin fibroblasts were seeded in a 48-well plate at a concentration of 2 to 5×10^4 cells/mL and cultured for 24 hours. Subsequently, the growth medium was removed, and a medium containing the strain of the present invention (without FBS added) was added, and the cells were cultured for 24 hours, and thereafter the cell culture solution was taken and subjected to ELISA analysis.

MNT-1 melanoma cells = assay: Melanin production inhibitory ability; conditions: 200 μg/mL, 72 hours
Experimental: The melanin production inhibitory ability (brightening) of the Lactobacillus pentosus […]-1 strain of the present invention was investigated. Specifically, MNT-1 melanoma cells were prepared by adding 10% FBS to DMEM (Dulbecco's Modified Eagle's Medium) as a basal medium. Then, the MNT-1 melanoma cells were seeded in a 6-well plate at a concentration of 1 to 2×10^5 cells/mL and cultured for 24 hours. Subsequently, the strain of the present invention was treated, and the cells were cultured for 72 hours and then recovered. Then, after centrifugation at 13,000 rpm for 1 minute and removal of the supernatant, 300 μL of a 0.5% Triton X-100 solution was added to the pellet to lyse the cells. Thereafter, centrifugation was performed at 13,000 rpm for 3 minutes, and the pellet and supernatant were recovered. Then, 100 μL of 0.5N NaOH was added to the pellet, and the cells were incubated overnight to dissolve melanin, and then the absorbance at 450 nm was measured using an ELISA reader.

[1] = tested on: raw 264.7 mouse macrophages; assay: Nitric oxide production inhibitory ability, GRIESS method, LPS stimulated; conditions: 100 uM, 500 ng/mL LPS
Experimental: The NO production inhibitory ability of the Lactobacillus pentosus NIFSLG-1 strain of the present invention was investigated. Specifically, the nitric oxide (NO) production ability in raw 264.7 mouse macrophages was evaluated for anti-inflammatory efficacy using the GRIESS method. First, the Raw 264.7 cells (2×10^5 cells/well) were dispensed into a 24-well culture plate, cultured in a DMEM medium containing 10% FBS (fetal bovine serum) for 24 hours, and then cultured in a medium without FBS for 12 hours. Subsequently, […] and pretreated for 30 minutes, and added to the cells with LPS (lipopolysaccharide) to a final concentration of 500 ng/ml, and then cultured for 18 hours.
Thereafter, the supernatant was recovered, and the GRIESS reagent was added, followed by reacting at room temperature for 15 minutes, and the absorbance was measured at 540 nm to evaluate the relative NO production and production inhibitory ability.

## O=C1O[C@H]([C@@H](O)CO)C(O)=C1O [Vita C]
Skin fibroblasts
  Collagen (% control): 161.91 % control

## OC[C@H]1O[C@@H](Oc2ccc(O)cc2)[C@H](O)[C@@H](O)[C@@H]1O [Arbutin]
MNT-1 melanoma cells
  Melanin content (% control): 74.37 % control

## CNC(=N)NCCC[C@H](N)C(=O)O [L-NMMA]
[1]
  Inhibition Rate (% control) of NO production: 81.2 % control
